What follows are molecules tested on Acetylcholine-Bromide Induced Abdominal Constriction (assay: Mouse Acetylcholine Bromide-Induced Abdominal Constriction Assay). Conditions: @10 mpk/ko (so in the source).
Assay type: in vivo
Description: Mouse Acetylcholine Bromide-Induced Abdominal Constriction Assay
The mouse acetylcholine-induced abdominal constiction assay, as described by Collier et al. in Brit. J. Pharmacol. Chem. Ther., 32:295-310, 1968, with minor modifications was used to assess analgesic potency of the compounds of formula (I). […] The mice were then placed in groups of three into glass bell jars and observed for a ten minute observation period for the occurrence of an abdominal constriction response (defined as a wave of constriction and elongation passing caudally along the abdominal wall, accompanied by a twisting of the trunk and followed by extension of the hind limbs). The percent inhibition of this response to a nociceptive stimulus (equated to % analgesia) was calculated as follows: The % Inhibition of response, i.e., % analgesia is equal to the difference between the No. of control animals response and the No. of drug-treated animals response times 100 divided by the No. of control animals responding.
At least 15 animals were used for control and in each of the drug treated groups. At least three doses were used to determine each dose response curve and ED50 (that dose which would produce 50% analgesia). The ED50 values and their 95% fiducial limits were determined by a computer assisted probit analysis.
For CN1C[C@@H]2CCC[C@@](O)(c3ccccc3)[C@@H]2C1 (single isomer, unassigned) [Cp-12, (-)-4β-Hydroxy-2-Methyl-4-Phenyl-3aα,7aα-Octahydroisoindole], the “% Inhibition” value was 90%.

Same assay, conditions: @10 mpk/po
CN1C[C@@H]2CCC[C@@](O)(c3ccccc3)[C@@H]2C1 (single isomer, unassigned) [Cp-15, (+)-4β-Hydroxy-2-Methyl-4-phenyl-3aα,7aα-octahydroisoindole] was tested, and the “% Inhibition” value was 90%.

Same assay, conditions: @30 mpk/po
With COc1ccc([C@]2(O)CCC[C@H]3CN(C)C[C@H]32)cc1 (relative stereo) [Cp-3] the “% Inhibition” value was 46-93%. For O[C@@]1(c2cccc(C(F)(F)F)c2)CCC[C@H]2CN(Cc3ccccc3)C[C@H]21 (relative stereo) [Cp-18], the “% Inhibition” value was 71%.

Same assay, conditions: @30 mpk/sc
For COc1cccc([C@]2(O)CCC[C@H]3CN(Cc4ccccc4)C[C@H]32)c1 (relative stereo) [Cp-13], the “% Inhibition” value was 75%.

Same assay, conditions: Mus musculus, 0.5 h; po; 5.5 mg/kg i.p. acetylcholine bromide 30 minutes after drug; read-out: ED50 (dose which would produce 50% analgesia)
Molecule CN1C[C@@H]2CCC[C@@](O)(c3cccs3)[C@@H]2C1 (relative stereo) [Cp-1] has an ED50 of 7.3 mg/kg. Work on CN1C[C@@H]2CCC[C@@](O)(c3ccc(F)cc3)[C@@H]2C1 (relative stereo) [Cp-4] yielded an ED50 of 0.76 mg/kg. With CN1C[C@@H]2CCC[C@@](O)(c3cccc4ccccc34)[C@@H]2C1 (relative stereo) [Cp-5] the ED50 was 16.6 mg/kg. For CN1C[C@@H]2CCC[C@@](O)(c3cccnc3)[C@@H]2C1 (relative stereo) [Cp-6], the ED50 was 30.4 mg/kg. CN1C[C@@H]2CCC[C@@](O)(c3cccc(F)c3)[C@@H]2C1 (relative stereo) [Cp-7] showed an ED50 of 5.38 mg/kg. CN1C[C@@H]2CCC[C@@](O)(c3cccc(C(F)(F)F)c3)[C@@H]2C1 (relative stereo) [Cp-8] was tested, and the ED50 was 2.08 mg/kg. In the case of CN1C[C@@H]2CCC[C@@](O)(c3ccccn3)[C@@H]2C1 (relative stereo) [Cp-9], the ED50 is reported as 15.4 mg/kg. Molecule CN1C[C@@H]2CCC[C@@](O)(c3ccc(Cl)cc3Cl)[C@@H]2C1 (relative stereo) [Cp-11] has an ED50 of 1.36 mg/kg. With CN1C[C@@H]2CCC[C@@](O)(c3ccccc3)[C@@H]2C1 (relative stereo) [Cp-16] the ED50 was 3.9 mg/kg. With O[C@@]1(c2cccc(C(F)(F)F)c2)CCC[C@H]2CNC[C@H]21 (relative stereo) [Cp-19] the ED50 was 4.2 mg/kg. O[C@@]1(c2ccc(C(F)(F)F)cc2)CCC[C@H]2CN(Cc3ccccc3)C[C@H]21 (relative stereo) [Cp-20] gave an ED50 of 10.7 mg/kg.
